Data from the supplement of paper PMC11368000.

Columns and labels:
Conditions in all cases: exposure time: 90 min
[1] = test system: 1518 (donor line of iPSC-derived cardiomyocytes); experiment: POD (EC95) for loss of peak frequency (asystole) vs vehicle; higher = less potent (higher point of departure)
Experimental: (§1)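 Human iPSC-derived cardiomyocytes from 16 donors were exposed for 90 min at 37 °C to each PFAS at 0.1, 1, 10 and 100 µM in 0.5% DMSO, 384-well plates. Kinetic Ca2+ flux (FLIPR) and Hoechst nuclei counts were normalised to vehicle wells and fitted with a hierarchical Bayesian Hill model to give donor-specific PODs: EC05 for beat-rate increase or decrease and for decay-to-rise ratio increase (QT proxy), EC95 for peak-frequency loss (asystole), EC10 for total cell number loss. 0.03 µM is the lower bound.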

[2] = test system: 1531 (donor line of iPSC-derived cardiomyocytes); experiment: as above
Experimental: as §1

[3] = test system: 1083 (donor line of iPSC-derived cardiomyocytes); experiment: as above
Experimental: as §1

[4] = test system: 30171 (donor line of iPSC-derived cardiomyocytes); experiment: as above
Experimental: as §1

[5] = test system: 1518; experiment: POD (EC10) for decrease in total cell number (cytotoxicity) vs vehicle; higher = less potent (higher point of departure)
Experimental: as §1

[6] = test system: 1531; experiment: as above
Experimental: as §1

[7] = test system: 1083; experiment: as above
Experimental: as §1

[8] = test system: 1309 (donor line of iPSC-derived cardiomyocytes); experiment: as above
Experimental: as §1

[9] = test system: 30171; experiment: as above
Experimental: as §1

[10] = test system: 1535 (donor line of iPSC-derived cardiomyocytes); experiment: as above
Experimental: as §1

[11] = test system: 1118 (donor line of iPSC-derived cardiomyocytes); experiment: as above
Experimental: as §1

[12] = test system: 20032 (donor line of iPSC-derived cardiomyocytes); experiment: as above
Experimental: as §1

[13] = test system: 1565 (donor line of iPSC-derived cardiomyocytes); experiment: as above
Experimental: as §1

[14] = test system: 1434 (donor line of iPSC-derived cardiomyocytes); experiment: as above
Experimental: as §1

[15] = test system: 1368 (donor line of iPSC-derived cardiomyocytes); experiment: as above
Experimental: as §1

[16] = test system: 20084 (donor line of iPSC-derived cardiomyocytes); experiment: as above
Experimental: as §1

[17] = test system: 1392 (donor line of iPSC-derived cardiomyocytes); experiment: as above
Experimental: as §1

[18] = test system: 30145 (donor line of iPSC-derived cardiomyocytes); experiment: as above
Experimental: as §1

[19] = test system: 1516 (donor line of iPSC-derived cardiomyocytes); experiment: as above
Experimental: as §1

[20] = test system: 11235 (donor line of iPSC-derived cardiomyocytes); experiment: as above
Experimental: as §1

SMILES | POD vs vehicle [1] | POD vs vehicle [2] | POD vs vehicle [3] | POD vs vehicle [4] | POD vs vehicle [5] | POD vs vehicle [6] | POD vs vehicle [7] | POD vs vehicle [8] | POD vs vehicle [9] | POD vs vehicle [10] | POD vs vehicle [11] | POD vs vehicle [12] | POD vs vehicle [13] | POD vs vehicle [14] | POD vs vehicle [15] | POD vs vehicle [16] | POD vs vehicle [17] | POD vs vehicle [18] | POD vs vehicle [19] | POD vs vehicle [20]
NC(=O)C(F)(F)C(F)(F)C(F)(F)F [Heptafluorobutyramide] | > 100 µM | > 100 µM | > 100 µM | > 100 µM | > 100 µM | > 100 µM | > 100 µM | > 100 µM | > 100 µM | > 100 µM | > 100 µM | > 100 µM | > 100 µM | > 100 µM | > 100 µM | > 100 µM | > 100 µM | > 100 µM | > 100 µM | > 100 µM
OCC(F)(F)C(F)(F)C(F)(F)C(F)F [1H,1H,5H-Perfluoropentanol] | > 100 µM | > 100 µM | > 100 µM | > 100 µM | > 100 µM | > 100 µM | > 100 µM | > 100 µM | > 100 µM | > 100 µM | > 100 µM | > 100 µM | > 100 µM | > 100 µM | > 100 µM | > 100 µM | > 100 µM | > 100 µM | > 100 µM | > 100 µM
O=C(O)C=CC(F)(C(F)(F)F)C(F)(F)F [3-(Perfluoroisopropyl)-2-propenoic_acid] | > 100 µM | > 100 µM | > 100 µM | > 100 µM | > 100 µM | > 100 µM | > 100 µM | > 100 µM | > 100 µM | > 100 µM | > 100 µM | > 100 µM | > 100 µM | > 100 µM | > 100 µM | > 100 µM | > 100 µM | > 100 µM | > 100 µM | > 100 µM
O=C([O-])C(F)(F)C(F)(F)C(F)(F)C(F)(F)C(F)(F)C(F)(F)C(F)(F)F.[NH4+] [Ammonium_perfluorooctanoate] | > 100 µM | > 100 µM | > 100 µM | > 100 µM | > 100 µM | > 100 µM | > 100 µM | > 100 µM | > 100 µM | > 100 µM | > 100 µM | > 100 µM | > 100 µM | > 100 µM | > 100 µM | > 100 µM | > 100 µM | > 100 µM | > 100 µM | > 100 µM
O=C(O)C(F)(F)C(F)(F)C(F)(F)C(F)(F)C(F)(F)C(F)(F)C(F)(F)C(F)(F)Cl [9-Chloro-perfluorononanoic_acid] | > 100 µM | > 100 µM | > 100 µM | 44.1 µM | > 100 µM | > 100 µM | > 100 µM | > 100 µM | 30.5 µM | > 100 µM | > 100 µM | > 100 µM | > 100 µM | 36.7 µM | > 100 µM | > 100 µM | > 100 µM | > 100 µM | 56.2 µM | > 100 µM
O=C(O)CCC(F)(F)C(F)(F)C(F)(F)C(F)(F)C(F)(F)F [2H,2H,3H,3H-Perfluorooctanoic_acid] | > 100 µM | 92.7 µM | > 100 µM | 71.8 µM | > 100 µM | > 100 µM | > 100 µM | > 100 µM | > 100 µM | > 100 µM | > 100 µM | > 100 µM | > 100 µM | > 100 µM | > 100 µM | > 100 µM | > 100 µM | > 100 µM | > 100 µM | > 100 µM
O=C(O)C(F)(F)OC(F)(F)C(F)(F)OC(F)(F)C(F)(F)OC(F)(F)C(F)(F)C(F)(F)C(F)(F)F [Perfluoro-3,6,9-trioxatridecanoic_acid] | > 100 µM | 11.4 µM | 79.4 µM | 73 µM | > 100 µM | > 100 µM | > 100 µM | > 100 µM | 59.5 µM | > 100 µM | > 100 µM | > 100 µM | > 100 µM | 33.3 µM | > 100 µM | > 100 µM | > 100 µM | > 100 µM | 55.4 µM | > 100 µM
O=C(O)C(F)(F)C(F)(F)C(F)(F)C(F)(F)C(F)(F)C(F)(F)F [Perfluoroheptanoic_acid] | > 100 µM | > 100 µM | > 100 µM | > 100 µM | 23.6 µM | > 100 µM | > 100 µM | > 100 µM | > 100 µM | > 100 µM | > 100 µM | > 100 µM | > 100 µM | – | > 100 µM | 56.8 µM | > 100 µM | > 100 µM | – | > 100 µM
O=C(O)C(F)(F)C(F)(F)C(F)(F)C(F)(F)C(F)(F)C(F)(F)C(F)(F)F [Perfluorooctanoic_acid] | > 100 µM | > 100 µM | > 100 µM | > 100 µM | > 100 µM | > 100 µM | > 100 µM | > 100 µM | > 100 µM | > 100 µM | > 100 µM | > 100 µM | > 100 µM | > 100 µM | > 100 µM | > 100 µM | > 100 µM | > 100 µM | > 100 µM | > 100 µM
